Drawing on patent US10045980B2, “Inhibitor of p38 map kinase” (RESPIVERT LTD, priority 2014, dated 2018), this text covers IC50 and EC50 for one compound.

Molecules are shown by their SMILES.

One test relates to BEAS2B cells. As to the kind of experiment: Poly I:C-induced ICAM-1 expression in BEAS2B cells. Format: cell-based. Particulars: Homo sapiens, BEAS-2B, 18 h after poly I:C transfection, read-out: PolyIC/ICAM1 IC50 (BEAS2B). As for the experimental part:
Poly I:C was used in these studies as a simple, RNA virus mimic. Poly I:C-Oligofectamine mixture (2% Oligofectamine±1 μg/mL Poly I:C, 25 μL; Life Technologies and Invivogen Ltd., San Diego, Calif., respectively) was transfected into BEAS2B cells (human bronchial epithelial cells, ATCC). Cells were pre-incubated with final concentrations of test compounds for 2 h and the level of ICAM-1 expression on the cell surface was determined by cell-based ELISA. […]
The cells were washed with PBS-Tween (3×200 μL) and incubated with the secondary antibody (100 μL; HRP-conjugated anti-rabbit IgG, Dako Ltd., Glostrup, Denmark). […] The ICAM-1 signal was detected by reading the absorbance at 450 nm against a reference wavelength of 655 nm using a spectrophotometer. The cells were then washed with PBS-Tween (3×200 μL) and total cell numbers in each well were determined by reading absorbance at 595 nm after Crystal Violet staining (50 μL of a 2% solution in PBS) and elution by 1% SDS solution (100 μL) in PBS. The measured OD 450-655 readings were corrected for cell number by dividing with the OD595 reading in each well. The inhibition of ICAM-1 expression was calculated at each concentration of test compound by comparison with vehicle control.

In the next test the test system is d-U937 cells. As to the kind of experiment: LPS-induced TNFα/IL-8 release in d-U937 cells. Format: cell-based. As to conditions: Homo sapiens. The procedure: U937 cells, a human monocytic cell line, were differentiated into macrophage-type cells by incubation with PMA (100-200 ng/mL) for 48 to 72 hr. Cells were pre-incubated with final concentrations of test compound for 2 h and were then stimulated with LPS (0.1 μg/mL; from E. Coli: 0111:64, Sigma) for 4 h. The supernatant was collected for determination of TNFα and IL-8 concentrations by sandwich ELISA (Duo-set, R&D systems). […] The relative 50% effective concentration (REC50) was determined from the resultant concentration-response curve. The inhibition of IL-8 production was calculated at each concentration of test compound by comparison with vehicle control.

In test [1] the target is T1, p38 MAPKα isoform (MAPK14) (Homo sapiens, UniProt Q16539).
T1 construct: purchased Life Technologies
T1 sequence (Q16539 whole entry, canonical isoform): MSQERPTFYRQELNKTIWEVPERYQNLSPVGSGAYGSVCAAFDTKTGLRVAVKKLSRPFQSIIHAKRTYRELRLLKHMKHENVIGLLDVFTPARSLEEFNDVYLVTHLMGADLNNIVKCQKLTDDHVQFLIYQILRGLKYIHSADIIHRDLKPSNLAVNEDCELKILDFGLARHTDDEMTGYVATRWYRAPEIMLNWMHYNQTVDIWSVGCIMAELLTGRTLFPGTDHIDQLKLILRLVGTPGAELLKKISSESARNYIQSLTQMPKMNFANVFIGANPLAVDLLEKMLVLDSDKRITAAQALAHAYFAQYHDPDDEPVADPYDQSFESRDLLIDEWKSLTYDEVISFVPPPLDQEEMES
Description: p38 MAPKα enzyme inhibition (Z-LYTE FRET). In kind it is biochemical. As for the experimental part:
(§1) The enzyme inhibitory activities of the compound disclosed herein were determined by FRET using synthetic peptides labelled with both donor and acceptor fluorophores (Z-LYTE, Life Technologies, Paisley, UK).
The enzyme (40 ng/mL, 2.5 μL) was incubated with the test compound (2.5 μL of either 40 μg/mL, 12 μg/mL, 4 μg/mL, 1.2 μg/mL, 0.4 μg/mL, 0.12 μg/mL, 0.04 μg/mL, 0.012 μg/mL, 0.004 μg/mL or 0.0012 μg/mL) for 2 h at RT. […] Development reagent (protease, 5 μL) was added for 1 h prior to detection in a fluorescence microplate reader (EnVision, Perkin Elmer, Waltham, Mass., USA).
(§2) In all cases, the site-specific protease cleaves non-phosphorylated peptide only and eliminates the FRET signal. Phosphorylation levels of each reaction were calculated using the ratio of coumarin emission (donor) over fluorescein emission (acceptor), for which low ratios indicate high phosphorylation and high ratios indicate low phosphorylation levels.

The target in a further test is T2, GSK 3α enzyme isoform (Homo sapiens, UniProt P49840).
T2 construct: purchased Life Technologies
T2 sequence (P49840 whole entry, canonical isoform): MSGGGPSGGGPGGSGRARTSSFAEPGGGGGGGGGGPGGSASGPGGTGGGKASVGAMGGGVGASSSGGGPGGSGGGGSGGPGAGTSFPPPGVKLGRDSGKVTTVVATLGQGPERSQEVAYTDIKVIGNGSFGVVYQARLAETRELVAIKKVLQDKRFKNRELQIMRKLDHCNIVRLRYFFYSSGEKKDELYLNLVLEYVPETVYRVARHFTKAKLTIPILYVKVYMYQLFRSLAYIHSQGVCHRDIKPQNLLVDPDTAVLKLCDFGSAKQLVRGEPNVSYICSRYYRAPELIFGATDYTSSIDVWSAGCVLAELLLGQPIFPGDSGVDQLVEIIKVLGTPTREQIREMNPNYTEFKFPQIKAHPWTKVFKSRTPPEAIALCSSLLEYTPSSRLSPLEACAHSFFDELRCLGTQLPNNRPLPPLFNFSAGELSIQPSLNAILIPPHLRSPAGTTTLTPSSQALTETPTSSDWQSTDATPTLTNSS
Description: GSK 3α enzyme inhibition (Z-LYTE FRET). In kind it is biochemical. Particulars: read-out: IC50 Values for Enzyme Inhibition GSK3α. The procedure:
as §1
Development reagent (protease, 5 μL) was added for 1 h prior to detection in a fluorescence microplate reader (EnVision, Perkin Elmer).
as §2

The target in a further test is T3, c-Src (Homo sapiens, UniProt P12931).
T3 construct: purchased Life Technologies
T3 sequence (P12931 whole entry): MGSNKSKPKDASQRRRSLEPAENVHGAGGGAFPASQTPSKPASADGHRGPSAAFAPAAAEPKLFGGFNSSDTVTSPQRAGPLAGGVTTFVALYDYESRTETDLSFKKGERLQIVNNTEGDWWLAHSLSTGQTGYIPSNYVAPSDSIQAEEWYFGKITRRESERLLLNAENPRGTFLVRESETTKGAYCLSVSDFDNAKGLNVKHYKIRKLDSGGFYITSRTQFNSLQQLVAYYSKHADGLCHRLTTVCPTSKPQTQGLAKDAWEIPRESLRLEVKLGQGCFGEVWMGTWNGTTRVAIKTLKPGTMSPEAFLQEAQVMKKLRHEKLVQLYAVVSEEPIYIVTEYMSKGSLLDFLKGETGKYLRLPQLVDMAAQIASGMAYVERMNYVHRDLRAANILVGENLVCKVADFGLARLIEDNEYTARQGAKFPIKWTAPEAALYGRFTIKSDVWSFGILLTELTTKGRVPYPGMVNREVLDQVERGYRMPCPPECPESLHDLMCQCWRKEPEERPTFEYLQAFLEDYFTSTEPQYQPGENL
Description: c-Src enzyme inhibition (Z-LYTE FRET). Format: biochemical. The procedure:
as §1
The relevant enzyme (1000 ng/mL, 1400 ng/mL or 2000 ng/mL respectively, 2.5 μL) was incubated with the test compound (either 40 μg/mL, 12 μg/mL, 4 μg/mL, 1.2 μg/mL, 0.4 μg/mL, 0.12 μg/mL, 0.04 μg/mL, 0.012 μg/mL, 0.004 μg/mL or 0.0012 μg/mL, 2.5 μL each) for 2 h at RT. The FRET peptides (8 μM, 2.5 μL), and appropriate ATP solutions (2.5 μL, 800 μM for c-Src, and 60 μM ATP for HCK and Syk) were then added to the enzyme/compound mixtures and incubated for 1 h at RT. Development reagent (protease, 5 μL) was added for 1 h prior to detection in a fluorescence microplate reader (EnVision, Perkin Elmer).
as §2

Another test concerns the target T4, p38MAPKγ (MAPK12) (Homo sapiens, UniProt P53778).
T4 construct: purchased Life Technologies
T4 sequence (P53778 1-367): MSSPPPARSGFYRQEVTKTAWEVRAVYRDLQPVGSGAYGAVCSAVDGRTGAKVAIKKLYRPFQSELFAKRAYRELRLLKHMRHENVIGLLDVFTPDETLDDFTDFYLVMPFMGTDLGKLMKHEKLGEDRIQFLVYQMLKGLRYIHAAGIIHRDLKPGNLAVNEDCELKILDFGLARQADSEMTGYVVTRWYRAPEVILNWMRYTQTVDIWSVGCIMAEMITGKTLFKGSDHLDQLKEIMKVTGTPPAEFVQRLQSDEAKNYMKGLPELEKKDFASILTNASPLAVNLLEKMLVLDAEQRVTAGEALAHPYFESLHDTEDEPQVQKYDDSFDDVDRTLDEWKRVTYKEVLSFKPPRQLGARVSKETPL
Description: p38 MAPKγ enzyme inhibition (Z-LYTE FRET). In kind it is biochemical. The procedure:
as §1
The enzyme (800 ng/mL, 2.5 μL) was incubated with the test compound (2.5 μL at either 40 μg/mL, 12 μg/mL, 4 μg/mL, 1.2 μg/mL, 0.4 μg/mL, 0.12 μg/mL, 0.04 μg/mL, 0.012 μg/mL, 0.004 μg/mL or 0.0012 μg/mL) for 2 h at RT. The FRET peptides (8 μM, 2.5 μL), and appropriate ATP solution (2.5 μL, 400 μM) were then added to the enzymes/compound mixtures and incubated for 1 h at RT. Development reagent (protease, 5 μL) was added for 1 h prior to detection in a fluorescence microplate reader (EnVision, Perkin Elmer).
as §2

On to `CCc1cncc(Nc2cc(COc3ccc(NC(=O)Nc4cc(C(C)(C)C)nn4-c4ccc(C)cc4)c4ccccc34)ccn2)n1` [Compound of the invention, 1-(3-(tert-butyl)-1-(p-tolyl)-1H-pyrazol-5-yl)-3-(4-((2-((6-ethylpyrazin-2-yl)amino)pyridin-4-yl)methoxy)naphthalen-1-yl)urea], for which the IC50 in the test on BEAS2B cells is 61.1 nM; in the test on d-U937 cells (dU937, d-U937 cells, LPS 0.1 μg/mL, 4 h), 11.4 nM; in test [1], 26 nM; at GSK 3α enzyme isoform, > 15100 nM; at c-Src, 199 nM; against p38MAPKγ (MAPK12), 152 nM. Also, the EC50 in the test on d-U937 cells (dU937, 4 h, read-out: LPS Induced Release TNFα REC50 (dU937)) is 5.5 nM.
